Key:
[1] = Feed conversion ratio of a farm animal (general statement); format: in vivo; conditions: administered to a farm animal
Blautia obeum = assay: Fecal samples of piglets, 16S rRNA sequencing; format: in vivo
Protocol: (§1) On d22, from one piglet per pen (piglet with median weight at weaning) a fresh feces sample was collected and stored at −80° C. Total fecal DNA of 16 selected piglets (1 per pen) were extracted from 200 mg feces. ZymoBIOMICS™ DNA miniprep kit (Zymo Research) in combination with a FASTPREP® 24 device was used to extract and purify the microbial DNA as instructed by the manufacturer. Purified total DNA were eluted in 100 μl and were quickly checked for the concentration and quality using Nanodrop (Implen NANOPHOTOMETER®) before storage at −20° C.
(§2) Total DNA were submitted to Eurofins (GATC, Germany) to perform 16S rRNA sequencing using their INVIEW microbiome high specificity package. Briefly, total DNA were first amplified the hyper-variable regions 16S and integrated the barcodes through PCR. The PCR products were purified, then ligated with adapter for library preparation. The sequencing was done using PacBio sequencing technology, guaranteed for 25000 reads, mean read length […].
(§3) Amplicon analysis was performed using Mothur pipeline (mothur.org). Processing of the raw sequencing data was done according to the Mothur standard operating procedure (mothur.org/wiki/MiSeq_SOP). Alignment was accomplished using DAIRYdb 16S rRNA gene database (GitHub—marcomeola/DAIRYdb). Sequences were classified and any sequences classified as Chloroplast, Mitochondria, unknown, Archaea, or Eukaryota were removed from the data set. Preclustering of the sequences and removal of chimeric sequences using a Mothur-formatted version of the Ribosomal Database Project (RDP) training set and uchime, based on the Mothur protocol. Sequences were classified into Operational Taxonomic Units (OTUs) of ≥97% sequence identity. Singleton and doubleton reads were removed.
(§4) Data statistics of 16S data and figure plotting were performed in RStudio (rstudio.com/). Microbiome data was normalized in relative abundance or cpm (counts per million). The treatment effect of 2′FL in the microbiome abundance data was evaluated on normalized relative abundance (in %) using Mann-Whitney U test.

[2] = test system: Faecalibacterium prausnitzii; assay: Fecal samples of piglets, 16S rRNA sequencing; format: in vivo
Protocol: as §1, §2, §3, §4

Prevotella Sp. RS2 = assay: Fecal samples of piglets, 16S rRNA sequencing; format: in vivo
Protocol: as §1, §2, §3, §4

Lactobacillus mucosae = assay: Fecal samples of piglets, 16S rRNA sequencing; format: in vivo
Protocol: as §1, §2, §3, §4

[3] = Trial in calves: live weight, average daily gain, feed intake, feed conversion ratio (12 weeks); format: in vivo, Holstein Friesian calves
From the text: (§5) Holstein Friesian calves (2- to 3-week-old, 95% male) were transported from different farms to the experimental facility of Denkavit (Voorthuizen, The Netherlands) where the animals were reared. The calves were randomly and gender-equally divided in four groups based on experimental calf milk replacer (CMR): group A (placebo—standard CMR powder of the farm), group B (standard CMR powder supplemented with 0.005% dry wt. 2′FL), group C (standard CMR powder supplemented with 0.025% dry wt. 3′SL and 0.015% w/w 6′SL) and group D (standard CMR powder supplemented with 0.005% dry wt. 2′FL, 0.025% dry wt. 3′SL and 0.015% dry wt. 6′SL). The calf milk replacer was administered as a liquid to the calves (water was added to the CMR powder to obtain 150 grams CMR powder per liter liquid CMR). Each group involved 100 calves, assigned into four rows (25 calves per row) of two compartment blocks. Each row contained five pens, where four to six calves were living in one pen.
Starting from the day of arrival, calves received standard calf milk replacer (CMR) during a period of 9 weeks. Group A only received the CMR, while the CMR supplied to groups B, C and D was supplemented with MMOs as outlined in the section titled “Animals.” Calf starter (concentrates) and straw were introduced gradually from day 6 till the end of the experiment (12 weeks) while calves had access to corn silage at week 11 and 12. Feeds were provided ad libitum to calves twice a day in the morning and evening and were daily recorded based on rows (concentrates, straw, corn silage) or groups (CMR) consumption.
Calves were followed up by the farm staff since arrival until 12 weeks. Fecal consistency in scale 1-4 (Larson et al., 1977, J. Dairy Science, 60(6): p. 989-991) was recorded daily for the first ten days since arrival. Number of mortalities and signs of adverse effects were registered daily. The animals were treated prophylactically or metaphylactically (herd treatment) with 1 g oxytetracycline 100% (at day 4), 0.5 g Doxylin 50% WSP and 0.8 g Bromhexine 2% (at day 13), and 3.1 ml Tilmicosol 250 mg/ml (at day 24) to prevent and/or treat acute lung inflammation. Individual treatments were followed by remarks of the farm staff and diagnostics of farm veterinary practitioners. Disease incidences and medicinal usage based on individual treatments were recorded to compare between treatment groups. The incidence of diarrhea was 0% in all groups at the start of the study, and 1% (%; group A), 0% (group B), 1% (group C) and 2% (group D) after 12 weeks. Live weight of the animals was monitored at arrival (d1), two weeks (W2), six weeks (W6), ten weeks (W10) and 12 weeks (W12) since arrival. Feed conversion ratio (FCR) of each period was computed based on the input of daily weight gain and daily feed intake.
Prior to analysis, the data of live weight and FCR were checked for outliers. A data point was considered an outlier if it could reasonably be expected that observed trail results were due to other factors than the treatment, e.g., due to sickness. An ANCOVA model as below was used to analyze the live weight data (R version 4.1.2.).
Differences among means with P<0.05 were accepted as significant. Differences among means with 0.05<P<0.10 were accepted as tendency. Multiple comparisons were done with Tukey.
Other performance data were analyzed using a mixed linear model using treatments as fixed and Row as random term using 1me in the nlme package.

[4] = Trial in calves: health and safety observation (adverse effects, mortality, diarrhea); format: in vivo, Holstein Friesian calves; conditions: after 12 weeks
From the text: as §5, with “Each row contained five pens, where four to six calves were living in one pen.” left out
Calves were followed up by the farm staff since arrival until 12 weeks. Fecal consistency in scale 1-4 (Larson et al., 1977, J. Dairy Science, 60(6): p. 989-991) was recorded daily for the first ten days since arrival. […] Disease incidences and medicinal usage based on individual treatments were recorded to compare between treatment groups. […] Live weight of the animals was monitored at arrival (d1), two weeks (W2), six weeks (W6), ten weeks (W10) and 12 weeks (W12) since arrival. […]

2′-fucosyllactose [2′FL]
decrease of the feed conversion ratio [1]: strong decrease | effect on abundance (Blautia obeum; d 22): promoted | Relative abundance in fecal samples (Blautia obeum; weaning day (d 22), P=0.0428 vs control): 0.1672% | effect on abundance ([2]; d 22): promoted | Relative abundance in fecal samples ([2]; weaning day (d 22), P=0.00965 vs control): 0.278% | effect on abundance (Prevotella Sp. RS2; d 22): inhibited | Relative abundance in fecal samples (Prevotella Sp. RS2; weaning day (d 22), P=0.0129 vs control): 0.1093% | effect on abundance (Lactobacillus mucosae; d 22): promoted | Relative abundance in fecal samples (Lactobacillus mucosae; weaning day (d 22), P=0.0263 vs control): 0.1586% | Live weight ([3]; W 0 (arrival), mean ± SD): 45.6 ± 2.8 kg | Feed conversion ratio (FCR) ([3]; W 0-W 2): 1.34 | Average daily gain ([3]; W 0-W 2, mean ± SD): 600.1 ± 155.0 g/day | Feed conversion ratio (FCR) ([3]; W 0-W 6): 1.53 | Feed conversion ratio (FCR) ([3]; W 0-W 10): 2.01 | Feed conversion ratio (FCR) ([3]; W 0-W 12): 2.28 | Average daily gain ([3]; W 0-W 12, mean ± SD): 1099.5 ± 141.7 g/day | Live weight ([3]; W 2, mean ± SD): 54.0 ± 3.3 kg | Feed conversion ratio (FCR) ([3]; W 2-W 6): 1.67 | Average daily gain ([3]; W 2-W 6, mean ± SD): 954.9 ± 176.8 g/day | Live weight ([3]; W 6, mean ± SD): 80.7 ± 7.1 kg | Feed conversion ratio (FCR) ([3]; W 6-W 10): 2.51 | Average daily gain ([3]; W 6-W 10, mean ± SD): 1267.9 ± 202.2 g/day | Feed conversion ratio (FCR) ([3]; W 6-W 12): 2.76 | Live weight ([3]; W 10, mean ± SD): 116.2 ± 11.0 kg | Feed conversion ratio (FCR) ([3]; W 10-W 12): 3.44 | Average daily gain ([3]; W 10-W 12, mean ± SD): 1484.6 ± 260.7 g/day | Live weight ([3]; W 12, mean ± SD): 136.8 ± 12.7 kg | Average feed intake, CMR ([3]; calf milk replacer, 12 weeks trial): 42.3 kg | Average feed intake, Concentrates ([3]; concentrates, 12 weeks trial, mean ± SD): 131.6 ± 6.2 kg | Average feed intake, Corn silage ([3]; corn silage, mean ± SD): 14.8 ± 1.3 kg | Average feed intake, Straw ([3]; straw, 12 weeks trial, mean ± SD): 16.0 ± 0.8 kg | incidence of diarrhea [4]: 0%

— patent US20260294946A1, “METHOD TO REDUCE FEED CONVERSION RATIO IN A FARMED ANIMAL” (Inbiose N.V., priority 2023, published 2026)
